Positions of bridges follow the written chain, without caps; N, C: chain ends. Residues, ends and D or L forms follow the SMILES beside them.
Legend:
[1] = system: serum calcium concentration
Description: Biological Assay of Calcitonin Analogs in Vivo
Rats were divided into four groups of seven animals, and each group was assigned at random to a dose of standard or test solution. Low and high doses were chosen from the linear portion of the dose-response curve. For the salmon calcitonin standard, the values were 0.7 and 2.1 ng. peptide/100 g. body weight (BW). This dose approximates 3 and 9 MU/100 g. BW. Peptides were given by subcutaneous injection (0.2 ml/100 g. BW) and blood was withdrawn 1 hour later for serum calcium determination. Sera are processed and analyzed within two hours of collection. Results were analyzed within two hours of collection.

[2] = literature values; cited from earlier work

Compound	hypocalcemic potency [2]	also measured
CC(C)C[C@H](NC(=O)[C@H](CCCCN)NC(=O)CNC(=O)[C@H](CC(C)C)NC(=O)[C@@H](NC(=O)[C@@H]1CSSC[C@H](N)C(=O)N[C@@H](CO)C(=O)N[C@@H](CC(N)=O)C(=O)N[C@@H](CC(C)C)C(=O)N[C@@H](CO)C(=O)N[C@@H]([C@@H](C)O)C(=O)N1)C(C)C)C(=O)N[C@@H](CO)C(=O)N[C@@H](CCC(N)=O)C(=O)N[C@@H](CCC(=O)O)C(=O)N[C@@H](CC(C)C)C(=O)N[C@@H](Cc1c[nH]cn1)C(=O)N[C@@H](CCCCN)C(=O)N1CCC[C@H]1C(=O)N[C@@H](CCCNC(=N)N)C(=O)N[C@H](C(=O)N[C@@H](CC(N)=O)C(=O)N[C@H](C(=O)NCC(=O)N[C@@H](CO)C(=O)NCC(=O)N[C@H](C(=O)N1CCC[C@H]1C(N)=O)[C@@H](C)O)[C@@H](C)O)[C@@H](C)O [des-Leu^19, Gln^20, Thr^21, Tyr^22 -SCT, des-19-leucine, 20-glutamine, 21-threonine, 22-tyrosine-salmon calcitonin] (H-CSNLSTCVLGKLSQELHKPRTNTGSGTP-NH2; disulfide 1-7)		biological potency ([1]; rat, in vivo, sc): 6250 IU/mg
CC(C)C[C@H](NC(=O)[C@H](CCCCN)NC(=O)CNC(=O)[C@H](CC(C)C)NC(=O)[C@@H](NC(=O)[C@@H]1CSSC[C@H](N)C(=O)N[C@@H](CO)C(=O)N[C@@H](CC(N)=O)C(=O)N[C@@H](CC(C)C)C(=O)N[C@@H](CO)C(=O)N[C@@H]([C@@H](C)O)C(=O)N1)C(C)C)C(=O)N[C@@H](CO)C(=O)N[C@@H](CCC(N)=O)C(=O)N[C@@H](CCC(=O)O)C(=O)N[C@@H](CC(C)C)C(=O)N[C@@H](Cc1c[nH]cn1)C(=O)N[C@@H](CCCCN)C(=O)N[C@@H](CC(C)C)C(=O)N[C@@H](CCC(N)=O)C(=O)N[C@H](C(=O)N[C@@H](Cc1ccc(O)cc1)C(=O)N1CCC[C@H]1C(=O)N[C@@H](CCCNC(=N)N)C(=O)N[C@H](C(=O)N[C@@H](CC(N)=O)C(=O)N[C@H](C(=O)NCC(=O)N[C@@H](CO)C(=O)NCC(=O)N[C@H](C(=O)N1CCC[C@H]1C(N)=O)[C@@H](C)O)[C@@H](C)O)[C@@H](C)O)[C@@H](C)O [standard salmon calcitonin, salmon calcitonin]		potency content of the standard, independently determined ([1]; standard salmon calcitonin used in the assay, independently determined): greater than 4,000 IU/mg
(1,7-alpha-L-amino-suberic acid) eel calcitonin	about 3400 IU/mg.	
eel calcitonin [synthetic eel calcitonin]	around 4300 IU/mg.	
